Source: PubChem BioAssay AID2060506 (Molecular Pharmacology Branch, DTP, NCI, 2025)
pIC50: −log10 of the molar value.

Test system: 598228-144-R-J1-PDC complex spheroid viability
Assay: Anticancer human tumor 598228-144-R-J1-PDC patient-derived serous endometrial adenocarcinoma cell line growth inhibition [GQUAD]
Conditions: for pIC50: curve of first compound; for viability, T/C: stronger effect = lower value
How it was run: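 Tumor cells were grown as complex spheroids with HUVEC endothelial cells and mesenchymal stem cells as stroma. G-quadruplex stabilizers were combined with targeted agents over half-log dilutions from near the clinical Cmax, or from 10 microM.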

[1] = second compound 0.0316 µM, first compound 0.0316 µM
[2] = second compound 0.0316 µM, first compound 0.1 µM
[3] = second compound 0.0316 µM, first compound 0.316 µM
[4] = second compound 0.0316 µM, first compound 1 µM
[5] = second compound 0.0316 µM, first compound 3.16 µM
[6] = second compound 0.0316 µM, first compound 10 µM
[7] = second compound 0.1 µM, first compound 0.0316 µM
[8] = second compound 0.1 µM, first compound 0.1 µM
[9] = second compound 0.1 µM, first compound 0.316 µM
[10] = second compound 0.1 µM, first compound 1 µM
[11] = second compound 0.1 µM, first compound 3.16 µM
[12] = second compound 0.1 µM, first compound 10 µM
[13] = second compound 0.316 µM, first compound 0.0316 µM
[14] = second compound 0.316 µM, first compound 0.1 µM
[15] = second compound 0.316 µM, first compound 0.316 µM
[16] = second compound 0.316 µM, first compound 1 µM
[17] = second compound 0.316 µM, first compound 3.16 µM
[18] = second compound 0.316 µM, first compound 10 µM
[19] = second compound 1 µM, first compound 0.0316 µM
[20] = second compound 1 µM, first compound 0.1 µM
[21] = second compound 1 µM, first compound 0.316 µM
[22] = second compound 1 µM, first compound 1 µM
[23] = second compound 1 µM, first compound 3.16 µM
[24] = second compound 1 µM, first compound 10 µM
[25] = second compound 3.16 µM, first compound 0.0316 µM
[26] = second compound 3.16 µM, first compound 0.1 µM
[27] = second compound 3.16 µM, first compound 0.316 µM
[28] = second compound 3.16 µM, first compound 1 µM
[29] = second compound 3.16 µM, first compound 3.16 µM
[30] = second compound 3.16 µM, first compound 10 µM
[31] = second compound 10 µM, first compound 0.0316 µM
[32] = second compound 10 µM, first compound 0.1 µM
[33] = second compound 10 µM, first compound 0.316 µM
[34] = second compound 10 µM, first compound 1 µM
[35] = second compound 10 µM, first compound 3.16 µM
[36] = second compound 10 µM, first compound 10 µM
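Note: spheroids exposed to the agents for one week before reading.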
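Throughout, for viability, T/C: percent of vehicle DMSO control viability so 100% = untreated growth.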

COc1cc(C2c3cc4c(cc3C(OC3OC5COC(C)OC5C(O)C3O)C3COC(=O)C23)OCO4)cc(OC)c1O (stereo unspecified) + CN(C)c1ccc(Nc2c3ccc(NC(=O)CCN4CCCC4)cc3nc3cc(NC(=O)CCN4CCCC4)ccc23)cc1
pIC50 (second compound 0.0316 µM): 5.09
pIC50 (second compound 0.1 µM): 5.29
pIC50 (second compound 0.316 µM): 5.27
pIC50 (second compound 1 µM): 6.05
pIC50 (second compound 3.16 µM): 5.29
pIC50 (second compound 10 µM): 6.33
viability, T/C [1]: 114%
viability, T/C [2]: 105%
viability, T/C [3]: 75.5%
viability, T/C [4]: 65.5%
viability, T/C [5]: 71.5%
viability, T/C [6]: 42.1%
viability, T/C [7]: 102%
viability, T/C [8]: 84.2%
viability, T/C [9]: 78.6%
viability, T/C [10]: 61.3%
viability, T/C [11]: 61.5%
viability, T/C [12]: 40.3%
viability, T/C [13]: 103%
viability, T/C [14]: 95%
viability, T/C [15]: 70.8%
viability, T/C [16]: 61.6%
viability, T/C [17]: 65.4%
viability, T/C [18]: 39.6%
viability, T/C [19]: 93.6%
viability, T/C [20]: 114%
viability, T/C [21]: 71.3%
viability, T/C [22]: 55.9%
viability, T/C [23]: 54.9%
viability, T/C [24]: 32.5%
viability, T/C [25]: 95%
viability, T/C [26]: 75.6%
viability, T/C [27]: 80%
viability, T/C [28]: 56.4%
viability, T/C [29]: 70.3%
viability, T/C [30]: 35.7%
viability, T/C [31]: 92.9%
viability, T/C [32]: 71.8%
viability, T/C [33]: 53%
viability, T/C [34]: 40.7%
viability, T/C [35]: 60.3%
viability, T/C [36]: 34.9%

Nc1ccn(C2OC(CO)C(O)C2(F)F)c(=O)n1 (stereo unspecified) + CN(C)c1ccc(Nc2c3ccc(NC(=O)CCN4CCCC4)cc3nc3cc(NC(=O)CCN4CCCC4)ccc23)cc1
pIC50 (second compound 0.0316 µM): > 7.50
pIC50 (second compound 0.1 µM): > 7.50
pIC50 (second compound 0.316 µM): 7.41
pIC50 (second compound 1 µM): 7.12
pIC50 (second compound 3.16 µM): 7.04
pIC50 (second compound 10 µM): > 7.50
viability, T/C [1]: 49.8%
viability, T/C [2]: 42.5%
viability, T/C [3]: 39.4%
viability, T/C [4]: 36.3%
viability, T/C [5]: 39.8%
viability, T/C [6]: 37.5%
viability, T/C [7]: 52.4%
viability, T/C [8]: 41.9%
viability, T/C [9]: 38.6%
viability, T/C [10]: 43.2%
viability, T/C [11]: 57.3%
viability, T/C [12]: 49.5%
viability, T/C [13]: 49.3%
viability, T/C [14]: 51.6%
viability, T/C [15]: 43.3%
viability, T/C [16]: 43.2%
viability, T/C [17]: 45.8%
viability, T/C [18]: 43.6%
viability, T/C [19]: 60.8%
viability, T/C [20]: 51.3%
viability, T/C [21]: 35.4%
viability, T/C [22]: 33.1%
viability, T/C [23]: 41.5%
viability, T/C [24]: 43.4%
viability, T/C [25]: 58.8%
viability, T/C [26]: 45.5%
viability, T/C [27]: 49.7%
viability, T/C [28]: 37.5%
viability, T/C [29]: 45.6%
viability, T/C [30]: 36.4%
viability, T/C [31]: 44.1%
viability, T/C [32]: 28.5%
viability, T/C [33]: 29.6%
viability, T/C [34]: 26.2%
viability, T/C [35]: 24%
viability, T/C [36]: 26.9%

CC(=O)O[C@H]1C(=O)[C@@]2(C)[C@H]([C@H](OC(=O)c3ccccc3)[C@]3(O)C[C@H](OC(=O)[C@H](O)[C@@H](NC(=O)c4ccccc4)c4ccccc4)C(C)=C1C3(C)C)[C@]1(OC(C)=O)CO[C@@H]1C[C@@H]2O + Cc1[nH]c2ccc(F)cc2c1-c1nc2c3cccnc3c3ncccc3c2[nH]1
pIC50 (second compound 0.0316 µM): 6.85
pIC50 (second compound 0.1 µM): 7.29
pIC50 (second compound 0.316 µM): 5.36
pIC50 (second compound 1 µM): > 7.50
pIC50 (second compound 3.16 µM): > 7.50
pIC50 (second compound 10 µM): > 7.50
viability, T/C [1]: 56.2%
viability, T/C [2]: 46.4%
viability, T/C [3]: 48.4%
viability, T/C [4]: 43.9%
viability, T/C [5]: 50.9%
viability, T/C [6]: 39.8%
viability, T/C [7]: 55.1%
viability, T/C [8]: 42.1%
viability, T/C [9]: 52.2%
viability, T/C [10]: 41.7%
viability, T/C [11]: 40.6%
viability, T/C [12]: 45.6%
viability, T/C [13]: 63.6%
viability, T/C [14]: 59.6%
viability, T/C [15]: 52.5%
viability, T/C [16]: 53.3%
viability, T/C [17]: 50.1%
viability, T/C [18]: 49.1%
viability, T/C [19]: 49.8%
viability, T/C [20]: 42.9%
viability, T/C [21]: 50.1%
viability, T/C [22]: 39%
viability, T/C [23]: 37.5%
viability, T/C [24]: 40.1%
viability, T/C [25]: 45.2%
viability, T/C [26]: 33.6%
viability, T/C [27]: 37.5%
viability, T/C [28]: 39.3%
viability, T/C [29]: 34.9%
viability, T/C [30]: 38.4%
viability, T/C [31]: 40.3%
viability, T/C [32]: 46.3%
viability, T/C [33]: 41.7%
viability, T/C [34]: 49.5%
viability, T/C [35]: 48.3%
viability, T/C [36]: 39.6%
